# In ChEMBL document CHEMBL1201862, “PubChem BioAssay data set” (2004):
# Where a name gives a salt, the structure may show the parent alone. The source made the active and inactive calls.
# Experiments:
# [1] = Jurkat T cell cytotoxicity, dose response, cytotoxicity control for P. falciparum gametocyte viability project, luminescence (AID 1117277); type: functional, cell-based;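 further: potency reflects loss of cellular ATP meaning fewer viable cells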
# [2] = P. falciparum late gametocyte killing, dose response, luminescence (AID 1117278); type: functional, cell-based;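 further: gametocytes exposed to compound for 24 hours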
# [3] = target: Calpain-2 catalytic subunit (Sus scrofa, UniProt P43367); assay: pig calpain II inhibitor potency, dose response, biochemical, fluorogenic peptide substrate (AID 1420); type: functional
# Sequence of Calpain-2 catalytic subunit (P43367 whole entry): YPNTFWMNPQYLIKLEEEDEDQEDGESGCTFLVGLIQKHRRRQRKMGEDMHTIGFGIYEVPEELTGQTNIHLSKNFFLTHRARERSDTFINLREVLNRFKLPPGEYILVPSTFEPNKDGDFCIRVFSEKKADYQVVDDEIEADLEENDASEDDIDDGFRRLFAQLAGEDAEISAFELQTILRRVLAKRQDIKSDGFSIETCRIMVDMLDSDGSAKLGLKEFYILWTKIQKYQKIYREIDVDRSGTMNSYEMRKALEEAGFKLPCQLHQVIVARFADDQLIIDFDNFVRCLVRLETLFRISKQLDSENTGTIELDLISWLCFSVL
# [4] = M. tuberculosis growth inhibition, HTS (AID 449762); type: functional
# [5] = inhibitors of intracellular T. cruzi replication, confirmation, NIH3T3 host cells, beta-gal luminescence (AID 2044); type: functional, cell-based;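 further: intracellular parasites grown in NIH/3T3 mouse fibroblasts as host cells; luminescent beta-galactosidase reporter signal from transgenic T. cruzi replicating inside host cells; inhibitors lower the luminescence signal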
# cells [6] = assay: cells
# [7] = cytotoxicity toward NIH3T3 fibroblasts, dose response, counter-screen, cell-based, ATP luminescence, mouse fibroblasts (AID 2010); type: functional;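 further: cells exposed to compound for about 90 hours before reading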
# [8] = Luminescence Cell-Based Dose Confirmation HTS to Identify Activators of 5'UTR Stem-Loop Driven Alpha-Synuclein mRNA Translation in H4 Neuroglioblastoma Cells. [Related pubchem assays: 1829 (Project Summary), 1814 (Primary HTS)]; type: functional
# H4 = assay: Luminescence Cell-Based Dose Response HTS to Identify Activators of 5'UTR Stem-Loop Driven Prion Protein mRNA Translation in H4 Neuroglioblastoma Cells. [Related pubchem assays: 1829 (Project Summary), 1814 (Primary HTS)]; type: functional; conditions: Homo sapiens
# Protein Tat = Protein Tat (Human immunodeficiency virus type 1 group M subtype B (isolate HXB2)(HIV-1), UniProt P04608); type: functional;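 further: tat binding to TAR RNA read out by fluorescence polarization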
# Sequence of Protein Tat (P04608 whole entry): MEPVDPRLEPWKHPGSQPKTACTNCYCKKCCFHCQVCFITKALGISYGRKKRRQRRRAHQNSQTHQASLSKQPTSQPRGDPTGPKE
# [9] = Luminescence Cell-Based Dose Response HTS to Identify Activators of Luciferase Translation or Activity in H4 […] Cells. [Related pubchem assays: 1829 (Project Summary), 1814 (Primary HTS)]; type: functional
# [10] = inhibitors of Vif binding to APOBEC3G peptide, primary screen, biochemical, TR-FRET, GST-Vif 1-94, biotin-A3G peptide, dose response retest (AID 1117319); type: functional;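 further: TR-FRET signal of purified GST-Vif binding a biotinylated A3G peptide; inhibitors lower the FRET signal by blocking Vif and A3G binding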
# Ephrin type-A receptor 4 = Ephrin type-A receptor 4 (Mus musculus, UniProt Q03137); assay: inhibitors of EphA4 binding to KYL peptide, primary screen, biochemical, colorimetric, mouse EphA4 (AID 689); type: functional
# Sequence of Ephrin type-A receptor 4 (Q03137 whole entry): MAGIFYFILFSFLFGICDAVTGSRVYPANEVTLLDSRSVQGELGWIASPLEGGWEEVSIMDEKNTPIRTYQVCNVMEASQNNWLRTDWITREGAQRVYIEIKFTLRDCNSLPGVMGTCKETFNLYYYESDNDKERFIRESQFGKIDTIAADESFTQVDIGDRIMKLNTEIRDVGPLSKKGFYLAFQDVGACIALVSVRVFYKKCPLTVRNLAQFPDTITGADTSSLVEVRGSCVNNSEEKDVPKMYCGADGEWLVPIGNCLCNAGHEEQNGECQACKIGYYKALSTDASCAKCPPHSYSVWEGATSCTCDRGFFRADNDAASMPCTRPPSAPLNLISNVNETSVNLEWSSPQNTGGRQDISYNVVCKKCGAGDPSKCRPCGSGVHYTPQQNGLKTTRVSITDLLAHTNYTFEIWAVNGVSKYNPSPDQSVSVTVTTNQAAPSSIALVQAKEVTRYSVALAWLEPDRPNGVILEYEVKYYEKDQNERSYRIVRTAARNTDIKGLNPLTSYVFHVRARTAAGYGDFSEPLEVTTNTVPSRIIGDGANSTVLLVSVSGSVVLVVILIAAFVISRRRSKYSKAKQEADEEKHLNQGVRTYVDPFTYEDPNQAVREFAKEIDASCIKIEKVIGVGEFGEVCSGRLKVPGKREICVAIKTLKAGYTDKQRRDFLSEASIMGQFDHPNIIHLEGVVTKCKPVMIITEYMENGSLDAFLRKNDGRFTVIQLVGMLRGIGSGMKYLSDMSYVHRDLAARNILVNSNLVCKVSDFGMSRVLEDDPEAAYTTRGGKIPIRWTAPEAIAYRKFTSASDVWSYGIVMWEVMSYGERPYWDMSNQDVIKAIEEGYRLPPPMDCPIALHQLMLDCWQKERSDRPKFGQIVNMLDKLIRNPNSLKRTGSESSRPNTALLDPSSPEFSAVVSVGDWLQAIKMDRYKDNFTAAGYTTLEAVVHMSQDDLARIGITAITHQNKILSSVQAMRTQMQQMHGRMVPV
# Cytochrome P450 3A4 = Cytochrome P450 3A4 (Homo sapiens, UniProt P08684);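 further: CYP3A4 tested as one member of a cytochrome P450 panel screen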
# Sequence of Cytochrome P450 3A4 (P08684 whole entry): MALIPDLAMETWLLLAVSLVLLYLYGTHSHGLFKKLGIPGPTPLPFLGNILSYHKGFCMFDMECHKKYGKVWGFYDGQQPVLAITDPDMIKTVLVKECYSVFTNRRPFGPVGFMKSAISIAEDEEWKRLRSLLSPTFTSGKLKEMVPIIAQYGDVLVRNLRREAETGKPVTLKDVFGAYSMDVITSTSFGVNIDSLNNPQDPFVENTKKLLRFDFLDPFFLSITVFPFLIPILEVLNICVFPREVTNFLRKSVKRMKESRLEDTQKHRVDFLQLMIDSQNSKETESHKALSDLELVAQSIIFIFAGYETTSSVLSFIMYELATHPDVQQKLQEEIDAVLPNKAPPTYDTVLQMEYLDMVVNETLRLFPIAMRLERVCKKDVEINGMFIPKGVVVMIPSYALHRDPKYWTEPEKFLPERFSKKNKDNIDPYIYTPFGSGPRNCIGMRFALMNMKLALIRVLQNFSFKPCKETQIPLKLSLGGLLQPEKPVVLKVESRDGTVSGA
# Cytochrome P450 2C9 = Cytochrome P450 2C9 (Homo sapiens, UniProt P11712)
# Sequence of Cytochrome P450 2C9 (P11712 whole entry): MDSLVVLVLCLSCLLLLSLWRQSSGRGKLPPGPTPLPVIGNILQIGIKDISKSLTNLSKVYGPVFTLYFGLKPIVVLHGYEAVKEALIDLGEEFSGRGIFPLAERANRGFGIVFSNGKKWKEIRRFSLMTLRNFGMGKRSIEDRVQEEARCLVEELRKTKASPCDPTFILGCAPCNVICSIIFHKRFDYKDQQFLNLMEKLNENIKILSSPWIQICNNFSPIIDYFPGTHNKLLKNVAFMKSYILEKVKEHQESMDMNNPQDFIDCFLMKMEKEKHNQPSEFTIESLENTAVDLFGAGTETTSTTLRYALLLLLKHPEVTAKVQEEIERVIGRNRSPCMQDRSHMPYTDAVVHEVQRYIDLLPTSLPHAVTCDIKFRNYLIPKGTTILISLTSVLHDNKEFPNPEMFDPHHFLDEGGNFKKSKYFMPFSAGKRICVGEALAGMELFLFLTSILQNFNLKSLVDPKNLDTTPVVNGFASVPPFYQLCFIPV
# Cytochrome P450 2C19 = Cytochrome P450 2C19 (Homo sapiens, UniProt P33261); assay: Cytochrome panel assay with activity outcomes. Panel member name: p450-cyp2c19 Compounds with AC50 equal or less than 10 uM are considered active; type: functional; conditions: read-out: AC50
# Sequence of Cytochrome P450 2C19 (P33261 whole entry): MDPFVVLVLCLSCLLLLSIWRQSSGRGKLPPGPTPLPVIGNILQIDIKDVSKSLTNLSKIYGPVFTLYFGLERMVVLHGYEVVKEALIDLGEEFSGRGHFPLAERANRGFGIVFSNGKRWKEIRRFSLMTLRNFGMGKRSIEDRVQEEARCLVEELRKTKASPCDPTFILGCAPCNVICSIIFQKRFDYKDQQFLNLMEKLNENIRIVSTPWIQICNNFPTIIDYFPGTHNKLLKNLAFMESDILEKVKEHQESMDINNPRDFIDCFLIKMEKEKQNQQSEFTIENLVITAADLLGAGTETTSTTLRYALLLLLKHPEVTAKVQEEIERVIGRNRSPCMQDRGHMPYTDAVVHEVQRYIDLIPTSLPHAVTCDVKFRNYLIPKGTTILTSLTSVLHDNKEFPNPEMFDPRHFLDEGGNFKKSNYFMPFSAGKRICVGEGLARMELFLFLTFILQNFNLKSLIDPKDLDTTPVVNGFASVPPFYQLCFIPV
# [11] = target: T1, Type-1 angiotensin II receptor (Homo sapiens, UniProt P30556); assay: AT1 receptor antagonists, dose response, selectivity assay for APJ receptor antagonist project, cell-based, uHTS hits (AID 463214); type: functional;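 further: antagonist potency against angiotensin II stimulated AT1 response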
# T1 sequence (P30556 whole entry): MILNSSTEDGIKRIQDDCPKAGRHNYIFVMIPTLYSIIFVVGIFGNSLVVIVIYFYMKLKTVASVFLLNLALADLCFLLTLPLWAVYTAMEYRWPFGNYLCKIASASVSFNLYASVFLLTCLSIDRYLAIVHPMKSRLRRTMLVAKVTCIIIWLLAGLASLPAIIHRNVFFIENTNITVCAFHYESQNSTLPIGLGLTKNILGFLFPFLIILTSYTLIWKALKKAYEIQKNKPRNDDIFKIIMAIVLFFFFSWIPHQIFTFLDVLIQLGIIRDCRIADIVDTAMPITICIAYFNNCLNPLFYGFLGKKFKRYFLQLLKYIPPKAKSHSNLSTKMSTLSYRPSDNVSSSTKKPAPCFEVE
# [12] = cytotoxicity in HPDE-C7 cells, cell-based, fluorescence, HTS (AID 430); type: functional; conditions: Homo sapiens
# [13] = cytotoxicity in HEK-293T cells, dose response, cytotoxicity control for TCR NF-kB inhibitor project, luminescence, T-cell screen hits (AID 489026); type: functional, cell-based;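 further: cells exposed to compound about 14 hours before the viability readout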
# Beta-galactosidase = Beta-galactosidase (Escherichia coli, UniProt Q8VNN2); assay: PubChem AID 485352; type: functional
# Sequence of Beta-galactosidase (Q8VNN2 whole entry): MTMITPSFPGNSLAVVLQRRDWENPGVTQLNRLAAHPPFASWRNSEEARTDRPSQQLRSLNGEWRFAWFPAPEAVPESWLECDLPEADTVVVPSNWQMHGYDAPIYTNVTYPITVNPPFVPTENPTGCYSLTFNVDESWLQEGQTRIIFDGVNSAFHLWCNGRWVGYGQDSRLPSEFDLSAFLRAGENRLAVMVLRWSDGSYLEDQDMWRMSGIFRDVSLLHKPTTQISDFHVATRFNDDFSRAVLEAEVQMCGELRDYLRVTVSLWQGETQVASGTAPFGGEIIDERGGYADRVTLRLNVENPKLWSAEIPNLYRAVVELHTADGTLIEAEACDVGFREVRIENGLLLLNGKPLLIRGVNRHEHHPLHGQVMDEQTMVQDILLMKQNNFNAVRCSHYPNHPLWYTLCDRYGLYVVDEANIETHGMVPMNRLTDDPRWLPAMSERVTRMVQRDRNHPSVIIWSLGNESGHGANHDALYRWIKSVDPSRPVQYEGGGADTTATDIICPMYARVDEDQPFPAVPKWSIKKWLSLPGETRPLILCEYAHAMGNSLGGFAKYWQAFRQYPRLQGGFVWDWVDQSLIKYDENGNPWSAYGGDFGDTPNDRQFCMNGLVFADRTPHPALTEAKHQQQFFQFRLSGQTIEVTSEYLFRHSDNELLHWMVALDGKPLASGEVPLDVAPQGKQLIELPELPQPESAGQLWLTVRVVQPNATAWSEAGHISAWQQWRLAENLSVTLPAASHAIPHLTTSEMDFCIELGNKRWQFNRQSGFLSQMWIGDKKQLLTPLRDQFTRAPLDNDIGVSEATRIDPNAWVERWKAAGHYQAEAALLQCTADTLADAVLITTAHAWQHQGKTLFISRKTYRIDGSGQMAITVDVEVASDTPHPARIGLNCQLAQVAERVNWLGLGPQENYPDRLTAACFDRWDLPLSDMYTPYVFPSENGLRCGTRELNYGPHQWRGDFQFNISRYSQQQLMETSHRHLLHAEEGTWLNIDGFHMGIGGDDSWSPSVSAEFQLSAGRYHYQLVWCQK
# [14] = cytotoxicity in KRAS-transformed pancreatic duct cells, primary screen, cell-based, fluorescence, HTS (AID 431); type: functional; conditions: Homo sapiens;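 further: cell line used: HPDE-C7K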
# [15] = C. albicans growth with fluconazole, confirmation, fluorescence, retest (AID 2467); type: functional, cell-based
# [16] = HepG2 cell cytotoxicity, dose response, cytotoxicity control, ATP luminescence, cherry-pick, set 6 (AID 1053125); type: functional, cell-based
# [17] = target: T2, Heat shock factor protein 1 (Mus musculus, UniProt P38532); assay: HSF1 potentiators in luciferase reporter cells, confirmation, cell-based, NIH3T3, luminescence, dose retest (AID 435004); type: functional;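 further: stress induced by proteasome inhibitor MG132 added 30 min after compound; luciferase reporter driven by HSF1 response element in NIH3T3 cells; actives raise luminescence as potentiators of the MG132 stress response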
# T2 sequence (P38532 whole entry): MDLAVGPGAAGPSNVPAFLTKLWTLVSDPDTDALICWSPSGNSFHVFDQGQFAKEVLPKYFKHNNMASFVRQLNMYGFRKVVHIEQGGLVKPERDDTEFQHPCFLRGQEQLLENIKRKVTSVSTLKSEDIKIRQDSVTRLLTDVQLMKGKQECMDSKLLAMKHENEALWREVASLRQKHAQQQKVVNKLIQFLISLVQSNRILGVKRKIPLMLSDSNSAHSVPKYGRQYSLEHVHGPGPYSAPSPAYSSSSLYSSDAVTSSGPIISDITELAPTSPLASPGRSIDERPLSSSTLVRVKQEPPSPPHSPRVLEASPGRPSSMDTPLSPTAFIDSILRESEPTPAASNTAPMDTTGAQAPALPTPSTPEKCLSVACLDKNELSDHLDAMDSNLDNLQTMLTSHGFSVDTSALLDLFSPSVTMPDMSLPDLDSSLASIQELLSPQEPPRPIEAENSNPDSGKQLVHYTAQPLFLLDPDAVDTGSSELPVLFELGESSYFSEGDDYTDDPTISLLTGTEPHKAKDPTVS
# cells [18] = conditions: A549
# cells [19] = conditions: HEK293
# [20] = NIH-3T3 fibroblast cytotoxicity, dose response, cytotoxicity control, cell-based, fluorescence, Alamar Blue, secondary assay (AID 2327); type: functional;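 further: NIH-3T3 mouse fibroblasts cultured with fluconazole at 8 µg/mL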
# [21] = HEp-2 cell cytotoxicity, dose response, cytotoxicity control for RSV inhibitor project, HTS (AID 2410); type: functional; conditions: human respiratory syncytial virus
# [22] = Luminescence Cell-Based Dose Response HTS to Identify Inhibitors of 5'UTR Stem-Loop Driven Prion Protein mRNA Translation in H4 Neuroglioblastoma Cells. [Related pubchem assays: 1827 (Project Summary), 1813 (Primary HTS)]; type: functional
# [23] = inhibitors of SNCA 5'UTR-driven reporter translation, confirmation, H4 neuroglioma cells, luminescence (AID 1988); type: functional, cell-based
# [24] = inhibitors of firefly luciferase expression or activity, dose response, H4 neuroglioma cells, luminescence (AID 1990); type: functional, cell-based
# [25] = target: T3, Ubiquitin-conjugating enzyme E2 N (Homo sapiens, UniProt P61088); type: functional;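 further: Dose-response confirmation in a TR-FRET assay detecting UBC13-driven polyubiquitin chain formation, inhibition measured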
# T3 sequence (P61088 whole entry): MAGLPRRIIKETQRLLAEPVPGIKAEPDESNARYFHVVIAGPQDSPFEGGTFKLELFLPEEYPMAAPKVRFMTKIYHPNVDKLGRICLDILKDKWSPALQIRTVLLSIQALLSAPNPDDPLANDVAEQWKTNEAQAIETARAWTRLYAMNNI
# [26] = target: T4, Rac GTPase-activating protein 1 (Homo sapiens, UniProt Q9H0H5); assay: MgcRacGAP GTPase-activating activity inhibitors, confirmation, biochemical, ADP Hunter fluorescence, primary and confirmatory (AID 624330); type: functional
# T4 sequence (Q9H0H5 whole entry): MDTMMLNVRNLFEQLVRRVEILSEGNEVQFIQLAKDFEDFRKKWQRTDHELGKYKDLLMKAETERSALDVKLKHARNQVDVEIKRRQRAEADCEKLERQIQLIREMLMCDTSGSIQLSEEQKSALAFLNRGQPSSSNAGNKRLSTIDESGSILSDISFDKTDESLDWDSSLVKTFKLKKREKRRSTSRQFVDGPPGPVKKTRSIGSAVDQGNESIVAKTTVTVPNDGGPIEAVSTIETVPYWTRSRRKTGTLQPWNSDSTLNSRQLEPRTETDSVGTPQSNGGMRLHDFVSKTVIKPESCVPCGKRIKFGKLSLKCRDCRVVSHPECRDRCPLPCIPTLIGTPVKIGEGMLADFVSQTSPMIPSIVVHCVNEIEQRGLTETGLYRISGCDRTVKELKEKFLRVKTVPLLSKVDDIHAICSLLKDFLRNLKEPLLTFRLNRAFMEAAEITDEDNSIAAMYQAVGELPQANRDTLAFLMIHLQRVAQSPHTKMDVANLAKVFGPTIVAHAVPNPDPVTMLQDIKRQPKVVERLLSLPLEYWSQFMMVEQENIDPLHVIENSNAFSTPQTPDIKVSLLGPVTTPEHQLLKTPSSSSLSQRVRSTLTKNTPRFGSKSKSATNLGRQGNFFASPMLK
# [27] = Luminescent dose response cell-based high throughput screening assay for inhibitors of the Janus kinase 2 mutant JAK2V617F. [Related pubchem assays: 1446 (Primary screen.), 1521 (Confirmation assay.), 1486 (Counter screen.)]; type: functional
# Estrogen receptor beta = Estrogen receptor beta (Homo sapiens, UniProt Q92731); assay: ERβ–SRC-3 coactivator interaction inhibitors, confirmation, orthogonal assay, biochemical, ELISA, streptavidin-HRP readout (AID 1060)
# Sequence of Estrogen receptor beta (Q92731 whole entry): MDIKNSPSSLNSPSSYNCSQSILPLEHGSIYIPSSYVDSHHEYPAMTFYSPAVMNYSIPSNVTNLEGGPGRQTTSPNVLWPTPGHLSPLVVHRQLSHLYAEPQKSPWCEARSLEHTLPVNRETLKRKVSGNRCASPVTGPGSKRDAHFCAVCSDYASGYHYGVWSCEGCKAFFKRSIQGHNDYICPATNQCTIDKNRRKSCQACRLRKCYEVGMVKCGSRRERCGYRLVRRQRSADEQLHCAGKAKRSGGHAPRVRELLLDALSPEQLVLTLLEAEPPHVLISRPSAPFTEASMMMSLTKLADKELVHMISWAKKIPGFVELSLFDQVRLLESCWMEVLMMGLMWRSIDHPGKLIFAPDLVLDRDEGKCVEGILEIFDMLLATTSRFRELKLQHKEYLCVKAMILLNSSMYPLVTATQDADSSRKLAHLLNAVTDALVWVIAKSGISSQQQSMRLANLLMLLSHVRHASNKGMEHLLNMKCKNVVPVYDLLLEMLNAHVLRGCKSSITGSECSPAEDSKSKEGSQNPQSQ
# Caspase-6 = target: T5, Caspase-6 (Homo sapiens, UniProt P55212); assay: human caspase-6 inhibitors, dose response, biochemical, VEID-R110 fluorescence, cherry-pick (AID 720632)
# T5 sequence (P55212 whole entry): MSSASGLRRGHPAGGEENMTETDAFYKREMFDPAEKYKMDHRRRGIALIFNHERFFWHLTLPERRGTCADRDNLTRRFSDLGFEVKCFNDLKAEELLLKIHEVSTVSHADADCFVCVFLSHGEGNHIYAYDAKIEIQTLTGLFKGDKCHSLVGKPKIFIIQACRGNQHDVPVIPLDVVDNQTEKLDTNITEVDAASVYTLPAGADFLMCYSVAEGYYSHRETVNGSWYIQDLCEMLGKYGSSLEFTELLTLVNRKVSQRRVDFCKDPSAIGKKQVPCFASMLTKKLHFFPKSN
smiles,measurement,setting,value
CCN(CC)S(=O)(=O)c1ccc(Cl)c(NC(=O)COC(=O)c2cccn2C)c1,IC50,[1],> 83.3 µM (inactive)
same,IC50,[2],> 109 µM (inactive)
Cc1ccc2nc(NC(=O)CN(C)S(=O)(=O)c3cccc4nsnc34)sc2c1,IC50,[3],> 50 µM (not active)
O=C(NCCCN1CCC(Cc2ccccc2)CC1)C1CCN(S(=O)(=O)N2CCC3(CC2)OCCO3)CC1,IC50,[1],> 83.3 µM (inactive)
same,IC50,[2],> 109 µM (inactive)
Cc1cccc(OCc2nnc(S)n2C2CCCCC2)c1,IC50,[3],15 µM (not active)
COc1ccc(N2CN=C3SCC(=O)N3C2)cc1,IC50,[4],> 100 µM (active)
CN(C)CCCNc1ccc(-c2nn(C)c(=O)c3ccccc23)cc1[N+](=O)[O-],EC50,[5],< 0.1 µM (active)
same,EC50,cells [6],0.135 µM (active)
same,EC50,[7],> 60 µM (not active)
Cn1ccnc1C(O)c1cc(C(C)(C)C)c(O)c(C(C)(C)C)c1 (centres undefined),IC50,[4],> 100 µM (active)
Cc1ccc2nc3c(cc2c1)CC1(C(=O)N(C)C(=O)N(C)C1=O)C1CCCCN31 (centres undefined),EC50,[8],35.6 µM (active)
same,EC50,H4,12 µM (active)
same,IC50,Protein Tat,> 100 µM (active)
same,EC50,[9],73.9 µM (active)
CC(=O)c1ccc(S(=O)(=O)Nc2cccc(-c3ccc(N4CCOCC4)nn3)c2)cc1,IC50,[10],> 100 µM (active)
CCOC(=O)C1=C(c2ccccc2)N=c2s/c(=C\c3cc(OC)c(OC)c(OC)c3)c(=O)n2C1c1cccs1 (centres undefined),EC50,[5],1.29 µM (active)
same,IC50,Ephrin type-A receptor 4,1.49 µM (active)
same,AC50,Cytochrome P450 3A4,7.08 µM (inconclusive)
same,AC50,Cytochrome P450 2C9,1.26 µM (inconclusive)
same,EC50,[7],> 60 µM (not active)
same,AC50,Cytochrome P450 2C19,0.631 µM (inconclusive)
CCOC(=O)/C=C/S(=O)(=O)c1ccc(NC(C)=O)cc1,IC50,[11],9.22 µM (active)
same,EC50,[12],8.93 µM (active)
same,IC50,[13],> 80 µM (inactive)
same,EC50,Beta-galactosidase,> 40 µM (inactive)
same,EC50,[14],10.4 µM (active)
N#CC(C#N)=C1C=CC=CN1/C(=C\c1ccccc1)C(=O)c1cccs1,EC50,[15],> 38 µM (not active)
same,AC50,[16],49.7 µM (active)
same,EC50,[17],4.04 µM (active)
same,AC50,cells [18],> 52 µM (inactive)
same,AC50,cells [19],22.1 µM (active)
same,EC50,[20],14.3 µM (active)
same,CC50,[21],21.6 µM (active)
CCOc1ccc(-c2cc(C)[n+](CCN(CC)CC)c(-c3ccc(OCC)cc3)c2)cc1.[O-][Cl+3]([O-])([O-])[O-],EC50,[5],< 0.1 µM (active)
same,EC50,[15],0.258 µM (active)
same,EC50,[22],14.6 µM (active)
same,EC50,[23],8.8 µM (active)
same,EC50,[24],10.2 µM (active)
same,EC50,cells [6],0.089 µM (active)
same,EC50,[20],98.5 µM (active)
same,EC50,[7],> 60 µM (not active)
CNCCC(Oc1ccc(C(F)(F)F)cc1)c1ccccc1 (centres undefined) [FLUOXETINE HYDROCHLORIDE],EC50,[12],> 20 µM (not active)
same,EC50,[14],> 20 µM (not active)
same,IC50,[25],> 20 µM (inactive)
Oc1ccc(Cl)cc1/N=C/c1sc2ccccc2c1Cl,IC50,[26],20.4 µM (active)
same,IC50,[27],1.15 µM (active)
CC1CCCCN1CC(=O)Nc1sc2c(c1C#N)CCCC2 (centres undefined),IC50,Estrogen receptor beta,0.0301 µM (not active)
CCC(CO)NC(=O)C1C=C2c3cccc4[nH]cc(c34)CC2N(C)C1 (centres undefined),AC50,Caspase-6,27.3 µM (active)
